The source made the active and inactive calls. The calls are words filed in the database; no cut-off is given here.
Assays:
[1] = Ratio of drug level in pans to cerebellum in baboon after 180 mins; format: ADME, tissue-based; conditions: papio hamadryas, in vivo, 3 h
[2] = Ratio of drug level in frontal cortex to cerebellum in baboon after 180 mins; format: ADME, tissue-based; conditions: papio hamadryas, in vivo, 3 h
[3] = Ratio of drug level in thalamus to cerebellum in baboon after 180 mins; format: ADME, tissue-based; conditions: papio hamadryas, in vivo, 3 h
[4] = Ratio of drug level in thalamus to cerebellum in Wistar rat after 90 mins; format: ADME, tissue-based; conditions: in vivo, 1.5 h
[5] = physchem; conditions: octanol/water, pH 7.4
Description: Distribution coefficient, log D at pH 7.4 by shake-flask method

[6] = tested on: Mus musculus; assay: Toxicity assessed as induction of death in CD1 mouse at 2 umol/kg; format: organism-based; conditions: in vivo
[7] = tested on: Mus musculus; assay: Induction of straub tail in CD1 mouse at 2 umol/kg; format: functional, organism-based
[8] = tested on: Mus musculus; assay: Induction of fast breathing in CD1 mouse at 2 umol/kg; format: functional, organism-based

SMILES: CN1[C@@H]2CC[C@@H]1[C@@H](c1cncc(-c3ccc([18F])nc3)c1)C2
- Ratio [1]: 2.4
- Ratio [2]: 2.4
- Ratio [3]: 6

SMILES: [11CH3]N1[C@@H]2CC[C@@H]1[C@@H](c1cnc(Cl)c(-c3ccnc(F)c3)c1)C2
- Ratio [4]: 6.5

SMILES: Fc1ccc(-c2cc([C@H]3C[C@H]4CC[C@H]3N4)cnc2Cl)cn1 (racemic)
- logD [5]: 0.68

SMILES: CN1[C@@H]2CC[C@@H]1[C@@H](c1cnc(F)c(-c3ccc(F)nc3)c1)C2 (racemic)
- logD [5]: 0.96

SMILES: CN1[C@@H]2CC[C@@H]1[C@@H](c1cncc(-c3ccc(F)nc3)c1)C2 (racemic)
- logD [5]: 0.45

SMILES: CN1[C@@H]2CC[C@@H]1[C@@H](c1cnc(F)c(-c3ccc(C#N)nc3)c1)C2 (racemic)
- logD [5]: 0.64

SMILES: CN1[C@@H]2CC[C@@H]1[C@@H](c1cnc(Cl)c(-c3ccnc(F)c3)c1)C2 (racemic)
- logD [5]: 1.26

SMILES: [11CH3]N1[C@@H]2CC[C@@H]1[C@@H](c1cnc(Cl)c(-c3ccnc(F)c3)c1)C2 (racemic)
- Ratio [4]: 2.2

SMILES: CN1[C@@H]2CC[C@@H]1[C@@H](c1cnc(Cl)c(-c3ccc(F)nc3)c1)C2 (single isomer, unassigned)
- logD [5]: 1.42

SMILES: CN1[C@@H]2CC[C@@H]1[C@@H](c1cncc(-c3ccc(F)nc3)c1)C2 (stereo in doubt; (-)-24d) [listing 1 of 2 here]
- Activity [6]: Non-toxic

SMILES: CN1[C@@H]2CC[C@@H]1[C@@H](c1cncc(-c3ccc(F)nc3)c1)C2 (stereo in doubt; (-)-24d) [listing 2 of 2 here]
- Activity [7]: Active
- Activity [8]: Active
